Values after ≈ are worked out from the molar mass of the structure shown. Values joined by “and” are separate entries in the source; they are usually repeats but may differ in a detail not shown here. Identical values can stand only once.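 Dose response: 5 concentrations. Exposure: 48 h. Format: 96-well plates. Endpoint: linear interpolation; highest concentration if not reached. GI50 marks 50% less growth. TGI is the concentration that stops growth completely.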
Tests used:
Experiment in all cases: DTP human tumour cell line panel, 48 h
786-0 renal = system: 786-0 renal
A498 renal = system: A498 renal
A549 NSCLC = system: A549 NSCLC
ACHN renal = system: ACHN renal
BT-549 breast = system: BT-549 breast
CAKI-1 renal = system: CAKI-1 renal
CCRF-CEM leukemia = system: CCRF-CEM leukemia
COLO 205 colon = system: COLO 205 colon
DU-145 prostate = system: DU-145 prostate
EKVX NSCLC = system: EKVX NSCLC
HCC-2998 colon = system: HCC-2998 colon
HCT-116 colon = system: HCT-116 colon
HCT-15 colon = system: HCT-15 colon
HL-60(TB) leukemia = system: HL-60(TB) leukemia
HOP-62 NSCLC = system: HOP-62 NSCLC
HOP-92 NSCLC = system: HOP-92 NSCLC
HS 578T breast = system: HS 578T breast
HT29 colon = system: HT29 colon
IGROV1 ovarian = system: IGROV1 ovarian
K-562 leukemia = system: K-562 leukemia
KM12 colon = system: KM12 colon
LOX IMVI melanoma = system: LOX IMVI melanoma
M14 melanoma = system: M14 melanoma
MALME-3M melanoma = system: MALME-3M melanoma
MCF7 breast = system: MCF7 breast
MDA-MB-231 breast = system: MDA-MB-231 breast
MDA-MB-435 = system: MDA-MB-435
MDA-N = system: MDA-N
MOLT-4 leukemia = system: MOLT-4 leukemia
NCI-H226 lung = system: NCI-H226 lung

CC1(C)CC(=O)C2=C(C1)NC(SSC1=C(C#N)C(c3ccc(Br)cc3)C3=C(CC(C)(C)CC3=O)N1)=C(C#N)C2c1ccc(Br)cc1 (centres undefined)
GI50 (786-0 renal): 53.8 µg/mL (≈ 69.2 µM)
TGI (786-0 renal): > 100 µM and 150 µg/mL
GI50 (A498 renal): > 150 µg/mL
TGI (A498 renal): > 100 µM and 150 µg/mL
GI50 (A549 NSCLC): > 150 µg/mL
TGI (A549 NSCLC): > 100 µM and 150 µg/mL
GI50 (ACHN renal): > 150 µg/mL
TGI (ACHN renal): > 100 µM and 150 µg/mL
GI50 (BT-549 breast): 28.1 µg/mL (≈ 36.2 µM)
TGI (BT-549 breast): > 100 µM and 52 µg/mL
GI50 (CAKI-1 renal): > 150 µg/mL
TGI (CAKI-1 renal): > 100 µM and 150 µg/mL
GI50 (CCRF-CEM leukemia): 34.3 µg/mL (≈ 44.2 µM)
TGI (CCRF-CEM leukemia): > 100 µM and 107 µg/mL
GI50 (COLO 205 colon): > 150 µg/mL
TGI (COLO 205 colon): > 100 µM and 150 µg/mL
GI50 (DU-145 prostate): > 150 µg/mL
TGI (DU-145 prostate): > 100 µM and 150 µg/mL
GI50 (EKVX NSCLC): > 150 µg/mL
TGI (EKVX NSCLC): > 100 µM and 150 µg/mL
GI50 (HCC-2998 colon): > 150 µg/mL
TGI (HCC-2998 colon): 150 µg/mL (≈ 193 µM)
GI50 (HCT-116 colon): 89.8 µg/mL (≈ 116 µM)
TGI (HCT-116 colon): > 100 µM and 150 µg/mL
GI50 (HCT-15 colon): 88.6 µg/mL (≈ 114 µM)
TGI (HCT-15 colon): > 100 µM and 150 µg/mL
GI50 (HL-60(TB) leukemia): 31.2 µg/mL (≈ 40.2 µM)
TGI (HL-60(TB) leukemia): > 100 µM and 77.1 µg/mL
GI50 (HOP-62 NSCLC): > 150 µg/mL
TGI (HOP-62 NSCLC): > 100 µM and 150 µg/mL
GI50 (HOP-92 NSCLC): 46.4 µg/mL (≈ 59.7 µM)
TGI (HOP-92 NSCLC): > 100 µM and 116 µg/mL
GI50 (HS 578T breast): 43.5 µg/mL (≈ 56 µM)
TGI (HS 578T breast): > 100 µM and 150 µg/mL
GI50 (HT29 colon): > 150 µg/mL
TGI (HT29 colon): > 100 µM and 150 µg/mL
GI50 (IGROV1 ovarian): > 150 µg/mL
TGI (IGROV1 ovarian): > 100 µM and 150 µg/mL
GI50 (K-562 leukemia): 30.8 µg/mL (≈ 39.7 µM)
TGI (K-562 leukemia): > 100 µM and 76.4 µg/mL
GI50 (KM12 colon): > 150 µg/mL
TGI (KM12 colon): > 100 µM and 150 µg/mL
GI50 (LOX IMVI melanoma): 22.9 µg/mL (≈ 29.4 µM)
TGI (LOX IMVI melanoma): > 100 µM and 46.6 µg/mL
GI50 (M14 melanoma): 51.4 µg/mL (≈ 66.2 µM)
TGI (M14 melanoma): > 100 µM and 150 µg/mL
GI50 (MALME-3M melanoma): 35.8 µg/mL (≈ 46.1 µM)
TGI (MALME-3M melanoma): > 100 µM and 98.7 µg/mL
GI50 (MCF7 breast): > 150 µg/mL
TGI (MCF7 breast): 150 µg/mL (≈ 193 µM)
GI50 (MDA-MB-231 breast): 26.6 µg/mL (≈ 34.3 µM)
TGI (MDA-MB-231 breast): > 100 µM and 53.5 µg/mL
GI50 (MDA-MB-435): 90.8 µg/mL (≈ 117 µM)
TGI (MDA-MB-435): > 100 µM and 150 µg/mL
GI50 (MDA-N): 45.9 µg/mL (≈ 59.1 µM)
TGI (MDA-N): > 100 µM and 150 µg/mL
GI50 (MOLT-4 leukemia): 41.9 µg/mL (≈ 53.9 µM)
TGI (MOLT-4 leukemia): > 100 µM and 150 µg/mL
GI50 (NCI-H226 lung): > 150 µg/mL
